According to patent US10240124B2, “Cell culture substrate comprising a laminin and a cadherin” (BioLamina AB, priority 2011, dated 2019):

Tests used:
[1] = test system: hES cells on LN-521; assay: Inhibition of survival assay on LN-521; type: cell-based, human; conditions: medium contained bFGF, FIG. 16
Excerpt: InSolution™ LY 294002 (a specific Akt inhibitor), InSolution™ Wortmannin (a specific PI3K inhibitor), and InSolution™ 98059 (a specific MEK1/Erk inhibitor) were purchased from Calbiochem. Antibodies to phospho-Akt (#4060), total-Akt (#9272), phospho-Erk (#9101), and total-Erk (#9102) were obtained from Cell Signaling Technology. PathScan Phospho-Akt1 sandwich ELISA kit (#7160), PathScan total Akt1 sandwich ELISA kit (#7170), PathScan Phospho-Akt2 sandwich ELISA kit (#7048), and PathScan total Akt2 sandwich ELISA kit (#7046) were also purchased from Cell Signaling Technology. Antibodies to Calnexin (#ab10286) were obtained from Abcam. Function blocking antibodies to various integrin subunits, mouse isotype antibodies, and α-dystroglycan were purchased from Millipore. Since function blocking antibodies to αV (MAB1980) and α6 (MAB1378) were presented in a solution with sodium azide, before the inhibition of survival experiment all the antibodies to alpha integrin subunits were dialyzed thrice against O3 medium for 2 hours each time. Antibodies to Lutheran receptor and α-fetoprotein, as well as rat isotype control antibodies were obtained from R&D Systems. Antibodies to Oct4, Nanog, SSEA-4, smooth muscle actin and MAP-2 were purchased from Millipore. […]

[2] = test system: human ES cells (HS181); assay: Cell adhesion assay, Crystal Violet (Example 1); type: cell-based; conditions: for cells remaining attached / surviving 24 hours after plating: HS181 completely dissociated, FIG. 4
Protocol: Ninety-six-well tissue cell culture plates were coated overnight at 4° C. with sterile solutions of the ECM proteins mouse LN-111 (Invitrogen), human recombinant LN-511, and human recombinant LN-521, all at a concentration of 30 μg/ml (5 μg/cm^2). For control cells, BD Matrigel™ hESC qualified (BD Biosciences) was used according to the manufacturer's instructions.
The assay was performed as described (Extracellular Matrix Protocols, 2000). Briefly, 96-well plates were coated by extracellular matrix proteins as described above and blocked by O3 medium containing bovine serum albumin. The ES cells were plated at a cell density of 600 cell/mm^2 upon extracellular matrix-coated plates and were left to adhere for either 1 hour or 1 day at the cell incubator. Non-adherent cells were washed away, and adherent cells were fixed for 20 min by 5% glutaraldehyde, stained by 0.1% Crystal Violet.

[3] = test system: hES cells; assay: Cell survival assay, 24 hours (Example 2); type: cell-based, human; conditions: for survival of hES cells 24 hours after plating from single cell suspension: O3 medium, absence of ROCK inhibitor; for survival of dissociated hES cells after 24 hours: quantified survival assay
Protocol: (§1) Briefly, 96-well plates were coated by extracellular matrix proteins as described above and blocked by O3 medium containing bovine serum albumin. The ES cells were plated at cell density of 50,000 cells/cm^2 onto extracellular matrix-coated plates and left to adhere for 1 hour in a cell incubator. After that the plates were washed 3 times with the medium to remove the non-adherent cells, and then the adherent cells were fixed for 20 minutes by 5% glutaraldehyde, stained by 0.1% Crystal Violet. (Kebo Lab, Spanga, Sweden, http://www.kebolab.se). After one hour and 3 washes with water, Crystal Violet was extracted with 10% acetic acid and quantified by measuring optical density at 570 nm. All the experiments were performed in quadruplicate.
The survival assay was performed as described for the cell adhesion assay above, except that the cells were left in the cell incubator for 24 hours. For inhibition of survival assay, the cells were kept in a medium with function blocking antibodies at the concentrations recommended by the manufacturer or pathway inhibitors at concentrations indicated in the text for 30 minutes, and then plated on the coated dishes. All the experiments were performed in quadruplicate.
Pluripotent hES cells express α1, α5, β1, β2 and γ1 laminin chains. To compare the adhesion and clonal survival of hES cells plated from single cell suspension to different coating substrata, hES cells growing as monolayers on LN-511 or as clusters on a feeder layer were trypsinized into single cell suspension in O3 medium and plated on cell culture dishes coated with Matrigel, LN-111, LN-511, LN-521 or a mixture of LN-511 and LN-521, in the absence or presence of a ROCK inhibitor (Y-27632) and analyzed after 24 hours.

[4] = test system: human embryonic stem cells; assay: Survival of hES cells plated in single cell suspension on precoated dishes (description); type: cell-based; conditions: O3 medium, 30 Kcells/cm^2
Excerpt: In other aspects, the present disclosure provides a new material, isolated laminin-521, which permits human embryonic stem cell survival after dissociation into single cell suspension. The stem cells were dissociated into single cell suspension by Trypsin-EDTA treatment, pelleted by centrifugation, resuspended into O3 medium, filtered through a 40 μm sieve, and plated at a density of 30 Kcells/cm^2 on cell culture dishes precoated by either isolated laminin-521, laminin-511, or Matrigel. After one day in culture, the cells plated on Matrigel died, as is known in the art.

[5] = test system: hES cells; assay: Cell adhesion assay, 1 hour (Example 2); type: cell-based, human; conditions: compared with Matrigel or LN-111, not shown
Protocol: Tissue cell culture plates were coated overnight at 4° C. with sterile solutions of the ECM proteins, such as human recombinant LN-521, all at a concentration of 30 μg/ml (5 μg/cm^2). Control plates were coated with Matrigel according to the STEMCELL Technologies' instructions. Prior to use, dishes were pre-warmed in an incubator for one hour after which prewarmed O3 medium was added without additional washing of the dish. After applying a fresh LN-521 solution to a new dish, the remaining LN-521 solution could be used at least once more. All the adhesion, survival, and inhibition of survival experiments were carried out using fresh coating materials.
as §1

[6] = test system: myosin light chain (MLC); assay: Western blot of phosphorylated myosin light chain; type: cell-based, human; conditions: one and six hours after plating, FIG. 12 and 13
Protocol: HS 181 cells were trypsinized into single cell suspension as described above. For inhibition experiments, the cells were kept in O3 medium with blocking antibodies or pathway inhibitors for 30 minutes and then 450K cells were plated on 35 mm dishes precoated with the appropriate matrix coating. For other experiments, same number of cells was plated directly after trypsinization. […] After two washings in ice-cold PBS, the plates with cells were snap frozen in liquid nitrogen and stored at −80° C. To prepare samples for western blots and ELISA, the plates were slowly thawed and kept on ice with 100-150 μl of lysis buffer (50 mM Tris-HCl, pH7.5, 150 mM NaCl, 0.5% deoxycholate, 0.5% SDS, 1% Triton X-100, 1% Igepal, Complete™ (Roche) and Phospho-Stop™ (Roche)) on top. Then, the cells were scraped, pipetted and sheared through a 27 G ¾″ needle. After that, the cell pellets were clarified by centrifugation at 16,100 rcf for 15 minutes at 4° C. For western blots, 4-12% gradient gels were used for SDS electrophoresis and the proteins were transferred to PVDF membranes. The membrane was hybridized with the antibody of interest according to the manufacturer's instructions. […] For the densitometry analysis the films were scanned at 2,400 dpi and analyzed by the Chemilmager5500 program (1 D-Multi Line densitometry mode). […]

[7] = biological target: Integrin α6β1 (Homo sapiens, UniProt P05556+P23229); conditions: cited from earlier work
Integrin α6β1, sequence (P23229 24-1130): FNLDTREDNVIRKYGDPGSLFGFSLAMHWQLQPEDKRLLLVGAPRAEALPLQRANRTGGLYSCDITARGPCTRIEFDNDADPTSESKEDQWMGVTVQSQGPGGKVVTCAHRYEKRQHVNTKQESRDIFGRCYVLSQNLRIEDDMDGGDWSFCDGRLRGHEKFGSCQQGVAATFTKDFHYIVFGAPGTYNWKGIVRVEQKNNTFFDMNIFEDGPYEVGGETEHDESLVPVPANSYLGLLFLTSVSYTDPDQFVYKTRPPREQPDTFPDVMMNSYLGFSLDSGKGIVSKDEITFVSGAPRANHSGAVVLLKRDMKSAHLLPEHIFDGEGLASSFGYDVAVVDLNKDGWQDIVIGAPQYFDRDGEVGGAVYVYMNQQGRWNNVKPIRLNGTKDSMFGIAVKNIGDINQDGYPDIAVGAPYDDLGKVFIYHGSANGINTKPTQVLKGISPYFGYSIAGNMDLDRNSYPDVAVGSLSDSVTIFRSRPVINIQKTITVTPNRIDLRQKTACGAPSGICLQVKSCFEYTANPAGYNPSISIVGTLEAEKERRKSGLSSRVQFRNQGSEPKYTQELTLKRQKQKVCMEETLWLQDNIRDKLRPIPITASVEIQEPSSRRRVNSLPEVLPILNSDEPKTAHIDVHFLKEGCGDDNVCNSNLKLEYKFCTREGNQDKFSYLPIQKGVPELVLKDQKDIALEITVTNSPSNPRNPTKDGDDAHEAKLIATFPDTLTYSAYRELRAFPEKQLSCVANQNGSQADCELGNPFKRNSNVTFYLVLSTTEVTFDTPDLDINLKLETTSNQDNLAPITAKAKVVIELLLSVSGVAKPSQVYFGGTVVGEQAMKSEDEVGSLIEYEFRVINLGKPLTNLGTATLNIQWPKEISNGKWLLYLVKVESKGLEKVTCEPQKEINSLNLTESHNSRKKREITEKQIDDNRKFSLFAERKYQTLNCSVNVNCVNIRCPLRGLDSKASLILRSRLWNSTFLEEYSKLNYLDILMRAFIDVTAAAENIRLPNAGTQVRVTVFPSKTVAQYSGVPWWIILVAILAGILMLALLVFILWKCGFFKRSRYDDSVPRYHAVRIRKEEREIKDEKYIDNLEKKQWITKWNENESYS
Integrin α6β1, sequence (P05556 21-798): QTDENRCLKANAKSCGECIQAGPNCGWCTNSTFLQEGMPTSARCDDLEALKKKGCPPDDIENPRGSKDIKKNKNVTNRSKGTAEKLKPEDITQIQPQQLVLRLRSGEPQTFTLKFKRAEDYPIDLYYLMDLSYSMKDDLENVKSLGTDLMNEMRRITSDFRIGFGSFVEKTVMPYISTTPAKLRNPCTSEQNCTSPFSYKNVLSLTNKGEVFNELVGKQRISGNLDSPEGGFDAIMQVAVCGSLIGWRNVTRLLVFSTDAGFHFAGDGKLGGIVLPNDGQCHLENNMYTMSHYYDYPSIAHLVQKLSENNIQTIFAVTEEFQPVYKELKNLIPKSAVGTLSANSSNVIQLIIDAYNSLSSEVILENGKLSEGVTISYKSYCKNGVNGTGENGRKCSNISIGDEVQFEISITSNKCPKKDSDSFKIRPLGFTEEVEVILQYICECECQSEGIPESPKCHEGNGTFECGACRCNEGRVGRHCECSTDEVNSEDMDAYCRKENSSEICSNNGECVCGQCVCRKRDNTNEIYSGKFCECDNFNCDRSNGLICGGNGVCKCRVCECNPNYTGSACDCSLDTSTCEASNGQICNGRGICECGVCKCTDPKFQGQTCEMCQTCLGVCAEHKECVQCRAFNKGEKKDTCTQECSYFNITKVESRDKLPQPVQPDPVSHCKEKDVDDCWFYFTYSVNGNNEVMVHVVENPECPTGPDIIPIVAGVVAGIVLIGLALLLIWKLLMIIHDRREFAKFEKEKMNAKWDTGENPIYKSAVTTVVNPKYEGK

[8] = test system: Human ES cells; conditions: over 3 months; engraftment into SCID mice; cited from earlier work
[9] = test system: hES cells; assay: Clonal survival of individualized hES cells, alkaline phosphatase staining (Example 4); type: cell-based, human
Protocol: hES cells were plated in mTeSR1 medium on different coatings at a density of 250 cells per cm^2 and monitored after 5 days in culture using an alkaline phosphatase staining kit.
Next, combinations of laminin-521 and E-Cadherin were tested to determine whether the combinations could sustain clonal survival of the cells. Fixed amounts of laminin-521 were used for the cell culture dish coating in combination with titrated E-Cadherin.
Additional tests were performed to test the effects of various modifications to the mTeSR1 medium. A mixture of E-Cadherin to laminin-521 in a ratio of about 1:10 w/w was used to coat the plates. […] Time-lapse photography of the cells confirmed that laminin-521/E-Cadherin coatings facilitated cell survival through proliferation of the single cells, not through the aggregation of different cells.

[10] = O3 medium without any additives

For COc1cccc(-c2cc(=O)c3ccccc3o2)c1N [PD 98059], the “hES cell survival 24 hours after plating on LN-521 with pathway inhibitor” value [1] was “did not affect the survival that severely”.

In the case of C[C@@H](N)[C@H]1CC[C@H](C(=O)Nc2ccncc2)CC1 [Y-27632, reference compound], the “cells remaining attached after one day with ROCK inhibitor” value ([2]; O3 medium treated with Y-27632, five coatings, FIG. 5) is reported as “remained attached on all 5 coatings” and the “survival of hES cells 24 hours after plating in the presence of ROCK inhibitor” value ([3]; Y-27632, all coatings) is reported as “survived on all surfaces”.

With “LN-111: mouse laminin-111 (Invitrogen), indicated as LN-111 if not otherwise stated” the “cells remaining attached / surviving 24 hours after plating” value [2, 10] was “almost no cells remained attached”, the “survival of hES cells 24 hours after plating from single cell suspension” value (“survival … from single cell suspension” below) [3] was “did not survive” and the “survival of dissociated hES cells after 24 hours” value [3] was “almost no cells had survived”.

In the case of “LN-121: human recombinant laminin of α1, β2 and γ1 chains from triple-transfected HEK293 cells”, the “survival … from single cell suspension” value [3] is reported as “failed to survive”.

With “LN-511: human recombinant laminin-511, control coating” the “survival of human embryonic stem cells after one day in culture” value [4] was “in most cases on laminin-511 survived”, the “cells remaining attached / surviving 24 hours after plating” value [2, 10] was “at a less extent” and the “adhesion of human ES cells at 1 hour” value ([2]; O3 medium without any additives, without Y-27632, FIG. 6) was “roughly the same”. For the same molecule, the “spreading of the cells after one hour” value [5] was “clearly better”, the “survival … from single cell suspension” value [3] was “did so as single cells” and the “survival of dissociated hES cells after 24 hours” value [3] was “very few”. For the same molecule, the “phosphorylation of MLC compared with cells on Matrigel and LN-111” value [6] was “even higher”, the “binding affinity of integrin α6β1 compared with LN-111” value [7] was “higher than that for LN-111” and the “pluripotency of human ES cells in long-term culture” value [8] was “maintain pluripotency and can generate teratomas”.

For “albumin: albumin of the mTeSR1 medium, concentration increased 2×”, the “effect of 2× increase in albumin concentration on clonal survival” value ([9]; laminin-521/E-Cadherin matrix, mTeSR1) was “significantly improved clonal survival”.

With “human recombinant LN-111: human recombinant laminin of α1, β1 and γ1 chains from triple-transfected HEK293 cells” the “survival … from single cell suspension” value [3] was “failed to survive”.

B1: E-Cadherin: epithelial-cadherin, most abundant cadherin isoform on the human ES cell surface; coating protein (protein, UniProt P12830 155-882, looked up)
Cadherin-1: DWVIPPISCPENEKGPFPKNLVQIKSNKDKEGKVFYSITGQGADTPPVGVFIIERETGWLKVTEPLDRERIATYTLFSHAVSSNGNAVEDPMEILITVTDQNDNKPEFTQEVFKGSVMEGALPGTSVMEVTATDADDDVNTYNAAIAYTILSQDPELPDKNMFTINRNTGVISVVTTGLDRESFPTYTLVVQAADLQGEGLSTTATAVITVTDTNDNPPIFNPTTYKGQVPENEANVVITTLKVTDADAPNTPAWEAVYTILNDDGGQFVVTTNPVNNDGILKTAKGLDFEAKQQYILHVAVTNVVPFEVSLTTSTATVTVDVLDVNEAPIFVPPEKRVEVSEDFGVGQEITSYTAQEPDTFMEQKITYRIWRDTANWLEINPDTGAISTRAELDREDFEHVKNSTYTALIIATDNGSPVATGTGTLLLILSDVNDNAPIPEPRTIFFCERNPKPQVINIIDADLPPNTSPFTAELTHGASANWTIQYNDPTQESIILKPKMALEVGDYKINLKLMDNQNKDQVTTLEVSVCDCEGAAGVCRKAQPVEAGLQIPAILGILGGILALLILILLLLLFLRRRAVVKEPLLPPEDDTRDNVYYYDEEGGGEEDQDFDLSQLHRGLDARPEVTRNDVAPTLMSVPRYLPRPANPDEIGNFIDENLKAADTDPTAPPYDSLLVFDYEGSGSEAASLSSLNSSESDKDQDYDYLNEWGNRFKKLADMYGGGEDD
For B1, the “clonal survival of individualized hES cells” value ([9]; mTeSR1, 250 cells per cm^2, 5 days) was “Neither laminin-521 nor E-Cadherin alone permitted efficient clonal survival”.
